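A five-concentration, 48-hour dose response in 96-well plates underlies each endpoint, interpolated linearly between surrounding concentrations. TGI: total growth inhibition.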 Where a SMILES comes first, the peptide text is derived from it. [ ]: non-standard residue; d: D form. 2Nal = N[CH](Cc1ccc2ccccc2c1)C(=O)O
How the values were obtained:
Assay in all cases: NCI tumour cell line growth inhibition, 48 h
[1] = tested on: DLD-1 colon
[2] = tested on: DMS 114 small cell lung
[3] = tested on: DMS 273 small cell lung
[4] = tested on: LXFL 529 NSCLC
[5] = tested on: RXF-631 renal
[6] = tested on: M19-MEL melanoma
[7] = tested on: MDA-N
[8] = tested on: SN12K1 renal
[9] = tested on: P388 leukemia
[10] = tested on: P388/ADR leukemia

Row | SMILES | TGI [1] [µM] | TGI [2] [µM] | TGI [3] [µM] | TGI [4] [µM] | TGI [5] [µM] | TGI [6] [µM] | TGI [7] [µM] | TGI [8] [µM] | TGI [9] [µM] | TGI [10] [µM]
1 | CC(=O)Nc1ccc(/C=c2\sc3nnc(/C=C/c4ccccc4)n3c2=O)cc1 | > 50 | > 50 | > 50 | > 50 | > 50 | > 50 | – | – | – | –
2 | CC1CC2C3CC(F)C4=CC(=O)C=CC4(C)C3(F)C(O)CC2(C)C1(O)C(=O)CO (stereo not drawn) | > 100 | > 100 | > 100 | – | > 100 | > 100 | – | – | – | –
3 | O=C1CCC(=O)c2cc(Br)ccc2N1 | > 100 | > 100 | > 100 | > 100 | > 100 | > 100 | – | – | – | –
4 | Cc1ccc(NC(=O)SCCC(=O)O)cc1NC(=O)SCCC(=O)O | > 10 | > 100 | > 10 | > 100 | – | – | – | – | – | –
5 | COc1cc2c(cc1OC)-c1c(cc(OC)c(OC)c1OC)C2=O | > 100 | > 100 | – | > 100 | > 100 | > 100 | – | – | – | –
6 | Oc1cccc(C2SCc3nc4ccccc4n32)c1 (stereo not drawn) | > 100 | > 100 | > 100 | > 100 | – | – | – | – | – | –
7 | O=C(O)/C(O)=C1/C=C(c2ccccc2)c2ccccc21 | > 100 | 37.6 | 33.1 | 91.4 | 86.3 | 60.1 | – | – | – | –
8 | O=C(Nc1cc(C(F)(F)F)ccc1Cl)C(=O)C(C(=O)c1ccc2ccccc2c1)C1OC(=O)c2ccccc21 (stereo not drawn) | 36.3 | 52.9 | – | 20.5 | – | 46.4 | – | – | – | –
9 | CC1=CC(C)C(O)C(C)/C=C/C(O)C/C=C(/C)C(=O)CC(O)C(C)\C=C/C=C/C=C\C(=O)NC2=C(O)c3cc(C)c(O)c(c3C(=O)C2=O)C1=O (stereo not drawn) | – | – | – | – | – | – | > 100 | – | – | –
10 | CNC(=O)OCc1nc(S(C)=O)n(C)c1COC(=O)NC (stereo not drawn) | > 100 | > 56.2 | > 100 | > 51.8 | > 100 | > 63.2 | – | > 100 | > 100 | > 100
11 | CSc1s[s+]c(SC)c1[O-] | 33.6 | 34.6 | > 100 | 38.7 | 41.8 | 29.5 | – | – | – | –
12 | N/C(=N\C(=S)N1CCCCC1)N1CCCCC1 | > 100 | > 100 | > 100 | > 100 | – | > 100 | – | – | – | –
13 | O=C1OC(c2ccc([N+](=O)[O-])cc2)=N/C1=C\c1ccc(O)cc1 | – | – | – | – | – | – | > 100 | – | – | –
14 | CC(NC(=O)C(N)Cc1ccccc1)C(=O)NC(Cc1ccc(O)cc1)C(=O)NC(Cc1c[nH]c2ccccc12)C(=O)NC(CCCCN)C(=O)NC(C(=O)NC(C)C(=O)NC(Cc1ccc2ccccc2c1)C(N)=O)C(C)C (stereo not drawn) (H-FAYWKVA[2Nal]-NH2; configuration not given here) | > 100 | 92.6 | 54.1 | – | – | 74 | – | – | – | –
15 | O=C1OC(=O)C2C3CCC(O3)C12 (stereo not drawn) | > 100 | > 100 | > 100 | > 100 | – | > 100 | – | – | – | –
16 | C=CC1=C(C)C2=NC1=CC1=NC(=C(CC)/C1=C/O)C=C1C=C3C(=O)C(C(=O)OC)C(=C4NC(=C2)C(C)C4CCC(=O)OC/C=C(\C)CCCC(C)CCCC(C)CCCC(C)C)C3=N1 (stereo not drawn) (tested in a mixture with another compound) | – | – | – | – | – | – | > 100 | – | – | –
17 | C=C(CO)CC(O)c1ccccc1 (stereo not drawn) | > 100 | > 100 | > 100 | > 100 | > 100 | > 100 | – | – | – | –
18 | COC1OC(C)C(OC(=O)C(C)(C)C)C(C)(O)C1O (stereo not drawn) | > 100 | – | > 100 | > 100 | – | > 100 | – | – | – | –
19 | O=C(C#Cc1c[nH]c(=O)[nH]c1=O)c1ccccc1 | 23.4 | 35.4 | 28.9 | – | 27.4 | 27.1 | – | – | – | –
20 | CN(C)CC1(C)CC/C(=C\c2ccc3c(c2)OCO3)C1=O (stereo not drawn) | > 100 | > 100 | > 100 | > 100 | – | > 100 | – | – | – | –
21 | CC(C)OCN1COCN=C1NC#N | 57.6 | > 100 | > 100 | > 100 | > 100 | > 100 | – | – | – | –
22 | C=C(C)C1CC[C@]2(C(=O)O)CCC3(C)[C@H](CCC4[C@@]5(C)CC[C@H](OC6OC(CO)C(O)C6OC6OC(C)C(O)C(O)C6O)[C@@](C)(CO)C5CC[C@]43C)C12 (stereo partly drawn) | > 100 | > 100 | > 100 | > 100 | > 100 | > 100 | – | – | – | –

Row | SMILES | TGI [1] [µM] | TGI [2] [µM] | TGI [3] [µM] | TGI [4] [µM] | TGI [5] [µM] | TGI [6] [µM] | TGI [7] [µM] | TGI [8] [µM] | TGI [9] [µM] | TGI [10] [µM]
23 | CC(NC1CCC[C@H]1O)c1ccccc1 (mixture of isomers) | – | > 100 | > 100 | – | – | > 100 | – | – | – | –
24 | CN/N=C(\C)CC(=O)Nc1cccc(Cl)c1C | > 100 | > 100 | > 100 | > 100 | > 100 | > 100 | – | – | – | –
25 | COCCN1C2=CCCCC2=Nc2c(N)nc(N)nc21 | > 100 | > 100 | > 100 | > 100 | > 100 | > 100 | – | – | – | –
26 | O=C(O)C1Cc2nc[nH]c2CN1 (stereo not drawn) | > 100 | > 100 | > 100 | > 100 | > 100 | > 100 | – | – | – | –
27 | O=C1C=C(Br)C(=O)C(Br)=C1 | > 100 | > 100 | > 100 | > 100 | > 100 | > 89.6 | – | – | – | –
28 | CC(=O)N1c2ccccc2C23CCN4CC5=CCOC(O)C(C5CC42)C13 (stereo not drawn) | – | – | – | – | – | – | > 100 | – | – | –
29 | Cc1cccc(NC(=O)CC2C(=O)Nc3ccccc3S2(=O)=O)c1C (stereo not drawn) | > 100 | 51.6 | > 100 | > 100 | – | > 100 | – | – | – | –
30 | COc1ccc(-c2c(N)[n+]([O-])c3cc(C)c(C)cc3[n+]2[O-])cc1OC | > 100 | 67.8 | > 100 | > 100 | 38.8 | > 100 | – | – | – | –
31 | COc1cc(C2C(C(=O)O)=C(C)Oc3cc4c(cc32)OCO4)cc(OC)c1OC (stereo not drawn) | > 100 | 50.6 | > 100 | – | > 100 | > 100 | – | – | – | –
32 | CCCCCN(CCCCC)C(=O)[C@@H](CCC(=O)OCc1ccccc1)NC(=O)c1cc2ccccc2[nH]1 | > 100 | > 100 | > 100 | > 100 | > 100 | – | – | – | – | –
33 | Fc1cccc(F)c1C1SCc2nc3ccccc3n21 (stereo not drawn) | > 100 | – | > 100 | > 100 | – | > 100 | – | – | – | –
34 | O=C1/C(=C\c2ccccc2)c2ccccc2N1Cc1ccccc1 | – | – | – | – | – | – | 13.4 | – | – | –
35 | COC(=O)C(C(=O)C(=O)Nc1ccccc1OC)c1csc(-n2nc(-c3ccccc3)cc2-c2ccccc2)n1 (stereo not drawn) | > 100 | > 100 | > 100 | > 100 | > 100 | > 100 | – | – | – | –
36 | CCC(=S)N(C)O | > 100 | 5.82 | – | > 100 | – | > 51.7 | > 100 | – | – | –
37 | COc1ccc(/C=N/NC(=O)O)cc1 | – | – | – | – | – | – | > 100 | – | – | –
38 | NC(C(=O)O)C(N)C(=O)O (stereo not drawn) | – | – | – | – | – | – | > 100 | – | – | –
39 | C=C1CC2(OC1=O)c1ccccc1CCc1ccccc12 | 3.4 | 3.42 | 11.3 | 3.07 | – | 3.36 | 3.34 | – | – | –
40 | CC1=COC2=C(C)C(=O)C(=O)c3c(C)ccc1c32 | – | – | – | – | – | – | 3.26 | – | – | –
41 | COc1ccc(OC)c(CCc2cc(OC)c(OC)cc2C)c1 | > 100 | 72.9 | – | > 100 | – | > 100 | – | – | – | –
42 | CC1CC(=O)C(C(O)CC2CC(=O)N(c3ccccc3)C(=O)C2)C(C)C1 (stereo not drawn) | > 100 | > 100 | > 100 | > 100 | – | > 100 | – | – | – | –
43 | N#Cc1c(NC(=O)CCC(=O)O)ccc2ccccc12 | – | – | – | – | – | – | > 100 | – | – | –

Reference: PubChem BioAssay (NCI)
